Format in all cases: in vivo
Experiment [1] relates to Myzus persicae. Nature of the experiment: Myzus persicae oral test. Conditions: 120 h, application rate 4 ppm, after 5 days, read-out: efficacy. The method, then:
[table] To produce a suitable active ingredient formulation, 1 part by weight of active ingredient is dissolved with the stated parts by weight of solvent and made up to the desired concentration with water. 50 μl of the active ingredient formulation are transferred into microtitre plates and made up to a final volume of 200 μl with 150 μl of IPL41 insect medium (33%+15% sugar). Subsequently, the plates are sealed with parafilm, which a mixed population of green peach aphids (Myzus persicae) within a second microtitre plate is able to puncture and imbibe the solution. After 5 days, the efficacy in % is determined. 100% means that all the aphids have been killed; 0% means that no aphids have been killed.

The test system of another experiment is Lucilia cuprina. Nature of the experiment: Lucilia cuprina test. Conditions: 48 h, application rate 100 ppm, L1 larvae, kill after 2 days, read-out: efficacy. The method, then: Solvent: dimethyl sulfoxide To produce a suitable active ingredient formulation, 10 mg of active ingredient are mixed with 0.5 ml of dimethyl sulfoxide, and the concentrate is diluted with water to the desired concentration. About 20 L1 larvae of the Australian sheep blowfly (Lucilia cuprina) are transferred into a test vessel containing minced horsemeat and the active ingredient formulation of the desired concentration. After 2 days, the kill in % is determined. 100% means that all the larvae have been killed; 0% means that no larvae have been killed.

The subject of experiment [2] is Myzus persicae. Nature of the experiment: Myzus persicae spray test. Conditions: foliar, 120 h, application rate 100 g/ha, Chinese cabbage leaf discs, after 5 days, read-out: efficacy. The method, then: (§1) [table] To produce a suitable active ingredient formulation, 1 part by weight of active ingredient is dissolved with the specified parts by weight of solvent and made up to the desired concentration with water containing an emulsifier concentration of 1000 ppm. To produce further test concentrations, the formulation is diluted with emulsifier-containing water. Discs of Chinese cabbage leaves (Brassica pekinensis) infested by all stages of the green peach aphid (Myzus persicae) are sprayed with an active ingredient formulation of the desired concentration. After 5 days, the efficacy in % is determined. 100% means that all the aphids have been killed; 0% means that no aphids have been killed.

The next experiment deals with Phaedon cochleariae. Nature of the experiment: Phaedon cochleariae spray test. Conditions: 168 h, application rate 100 g/ha, larvae, after 7 days, read-out: efficacy. As for the experimental part:
as §1, with “pekinensis)” for “pekinensis) infested by all stages of the green peach aphid (Myzus persicae)”, “concentration and, after drying, populated with larvae of the mustard beetle (Phaedon cochleariae).” for “concentration.”, “7” for “5”, “beetle larvae” for “aphids”

The subject of the next experiment is Spodoptera frugiperda. Nature of the experiment: Spodoptera frugiperda spray test. Particulars: foliar, 168 h, application rate 100 g/ha, maize leaf discs, caterpillars, after 7 days, read-out: efficacy. As for the experimental part:
[table] To produce a suitable active ingredient formulation, 1 part by weight of active ingredient is dissolved with the specified parts by weight of solvent and made up to the desired concentration with water containing an emulsifier concentration of 1000 ppm. To produce further test concentrations, the formulation is diluted with emulsifier-containing water. Leaf discs of maize (Zea mays) are sprayed with an active ingredient formulation of the desired concentration and, after drying, populated with caterpillars of the fall armyworm (Spodoptera frugiperda). After 7 days, the efficacy in % is determined. 100% means that all the caterpillars have been killed; 0% means that no caterpillar has been killed.

Another experiment has as its system Ctenocephalides felis. Nature of the experiment: Ctenocephalides felis oral test. Conditions: 48 h, application rate 100 ppm in citrated cattle blood, kill after 2 days, read-out: efficacy. The method, then:
Solvent: dimethyl sulfoxide To produce a suitable active ingredient formulation, 10 mg of active ingredient are mixed with 0.5 ml of dimethyl sulfoxide. Dilution with citrated cattle blood gives the desired concentration. About 20 unfed adult cat fleas (Ctenocephalides felis) are placed into a chamber which is closed at the top and bottom with gauze. A metal cylinder whose bottom end is closed with parafilm is placed onto the chamber. The cylinder contains the blood/active ingredient formulation, which can be imbibed by the fleas through the parafilm membrane. After 2 days, the kill in % is determined. 100% means that all of the fleas have been killed; 0% means that none of the fleas have been killed.

For the compound `CCn1c(Br)nc(-c2nc3cc(C(F)(F)F)ncc3n2C)c1S(=O)(=O)CC` [Example I-001], the pest or weed control at 4 ppm in the experiment with Myzus persicae [1] amounted to 100%. For the same compound, the pest or weed control at 100 ppm with Lucilia cuprina is 100%.
With `C=C(C)c1nc(-c2nc3cc(C(F)(F)F)ncc3n2C)c(S(=O)(=O)CC)n1C` [Example I-008], in the experiment with Myzus persicae [1], the pest or weed control at 4 ppm was 100%. In addition, in the experiment on Myzus persicae [2], the pest or weed control at 100 g/ha stood at 90%. The pest or weed control at 100 ppm in the experiment with Lucilia cuprina was found to be 100%.
In the case of `CCS(=O)(=O)c1c(-c2nc3cc(C(F)(F)F)ncc3n2C)nc(-c2ccccc2)n1C(C)C` [Example I-012], the pest or weed control at 4 ppm with Myzus persicae [1] worked out at 100%. Further, in the experiment with Myzus persicae [2], the pest or weed control at 100 g/ha was determined as 90%. In addition, the pest or weed control at 100 ppm with Lucilia cuprina worked out at 100%.
With `CCS(=O)(=O)c1c(-c2nc3cc(C(F)(F)F)ncc3n2C)nc(-c2ccncc2)n1C` [Example I-021], the pest or weed control at 4 ppm in the experiment with Myzus persicae [1] was 100%. Also, in the experiment on Myzus persicae [2], the pest or weed control at 100 g/ha stood at 100%. The pest or weed control at 100 ppm with Lucilia cuprina was found to be 80%.
On to `CCS(=O)(=O)c1c(-c2nc3cc(C(F)(F)F)ncc3n2C)nc(C#CC2CC2)n1C` [Example I-024], for which the pest or weed control at 4 ppm with Myzus persicae [1] turned out to be 90%. The pest or weed control at 100 g/ha in the experiment with Phaedon cochleariae and with Spodoptera frugiperda was 100% in each case.
With `CCS(=O)(=O)c1c(-c2nc3cc(C(F)(F)F)ncc3n2C)nc(-n2cc(Cl)cn2)n1C` [Example I-027, 2-[2-(4-chloro-1H-pyrazol-1-yl)-5-(ethylsulfonyl)-1-methyl-1H-imidazol-4-yl]-3-methyl-6-(trifluoromethyl)-3H-imidazo[4,5-c]pyridine], the pest or weed control at 4 ppm in the experiment on Myzus persicae [1] stood at 100%. For the same compound, the pest or weed control at 100 g/ha with Myzus persicae [2] was 90%; with Phaedon cochleariae, 100%; in the experiment with Spodoptera frugiperda, 100%.
In the case of `CCS(=O)(=O)c1c(-c2nc3cc(C(F)(F)F)ncc3n2C)nc(-c2ccnnc2)n1C` [Example I-030], the pest or weed control at 4 ppm in the experiment on Myzus persicae [1] worked out at 100%. The pest or weed control at 100 g/ha with Myzus persicae [2] came to 100%. Also, the pest or weed control at 100 ppm in the experiment on Lucilia cuprina is 100%.
With `CCS(=O)(=O)c1c(-c2nc3cc(C(F)(F)F)ncc3n2C)nc(C(N)=O)n1C` [Example I-038, 5-(Ethylsulfonyl)-1-methyl-4-[3-methyl-6-(trifluoromethyl)-3H-imidazo[4,5-c]pyridin-2-yl]-1H-imidazole-2-carboxamide], the pest or weed control at 4 ppm in the experiment with Myzus persicae [1] was 100%. The pest or weed control at 100 g/ha was 90% in the experiment with Myzus persicae [2] and 100% with Phaedon cochleariae. Besides, in the experiment with Ctenocephalides felis, the pest or weed control at 100 ppm turned out to be 100%.
On to `CCS(=O)(=O)c1c(-c2nc3cc(C(F)(F)F)ncc3n2C)nc(C(=O)NC)n1C` [Example I-039], for which the pest or weed control at 4 ppm in the experiment on Myzus persicae [1] amounted to 100%. Further, the pest or weed control at 100 g/ha with Myzus persicae [2] came out at 100%. Besides, in the experiment on Ctenocephalides felis, the pest or weed control at 100 ppm is 100%.
With `CCS(=O)(=O)c1c(-c2nc3cc(C(F)(F)F)ncc3n2C)nc(-c2ccsc2)n1C` [Example I-043], the pest or weed control at 4 ppm in the experiment with Myzus persicae [1] is 100%. Further, the pest or weed control at 100 g/ha in the experiment on Myzus persicae [2] is 90%. In addition, the pest or weed control at 100 ppm in the experiment with Lucilia cuprina is 100%.
Take `CCS(=O)(=O)c1c(-c2nc3cc(C(F)(F)F)ncc3n2C)nc(C(N)=S)n1C` [Example I-046, 5-(Ethylsulfonyl)-1-methyl-4-[3-methyl-6-(trifluoromethyl)-3H-imidazo[4,5-c]pyridin-2-yl]-1H-imidazole-2-carbothioamide]: the pest or weed control at 4 ppm in the experiment with Myzus persicae [1] is 100%. For the same compound, the pest or weed control at 100 g/ha in the experiment on Phaedon cochleariae was 100%. In addition, the pest or weed control at 100 ppm with Lucilia cuprina amounted to 95%.
In the case of `CCS(=O)(=O)c1c(-c2nc3cc(C(F)(F)F)ncc3n2C)nc(-c2ccc(Cl)s2)n1C` [Example I-057], the pest or weed control at 4 ppm in the experiment with Myzus persicae [1] is 100%. Further, the pest or weed control at 100 g/ha in the experiment with Myzus persicae [2] worked out at 90%; in the experiment on Phaedon cochleariae, 100%; with Spodoptera frugiperda it was 67%.
For the compound `CCS(=O)(=O)c1c(-c2nc3cc(C(F)(F)F)ncc3n2C)nc(-c2ccn(C)n2)n1C` [Example I-060], the pest or weed control at 4 ppm with Myzus persicae [1] turned out to be 100%. The pest or weed control at 100 g/ha in the experiment with Myzus persicae [2] is 100%; with Phaedon cochleariae, 100%; in the experiment on Spodoptera frugiperda, 83%.
With `CCS(=O)(=O)c1c(-c2nc3cc(C(F)(F)F)nnc3n2C)nc(-c2ccc(Cl)cc2)n1C` [Example I-063], the pest or weed control at 4 ppm in the experiment on Myzus persicae [1] stood at 100%. Also, the pest or weed control at 100 g/ha in the experiment on Myzus persicae [2], in the experiment on Phaedon cochleariae and in the experiment with Spodoptera frugiperda was 100% in each case.
As to `CCS(=O)(=O)c1c(-c2nc3cc(C(F)(F)F)ncc3n2C)nc(-c2ccc(C3(C#N)CC3)cc2)n1C` [Example I-069], in the experiment on Myzus persicae [1], the pest or weed control at 4 ppm was determined as 100%. The pest or weed control at 100 g/ha in the experiment with Myzus persicae [2] amounted to 90%; in the experiment on Phaedon cochleariae, 100%; in the experiment with Spodoptera frugiperda it was 100%.
`CCS(=O)(=O)c1c(-c2nc3cc(C(F)(F)F)ncc3n2C)nc(-c2ccc(C(F)(F)F)cc2C)n1C` [Example I-078]: in the experiment on Myzus persicae [1], the pest or weed control at 4 ppm amounted to 90%. The pest or weed control at 100 g/ha in the experiment on Phaedon cochleariae and in the experiment on Spodoptera frugiperda was 100% each time.
Turning to `CCS(=O)(=O)c1c(-c2nc3cc(C(F)(F)F)ncc3n2C)nc(-c2ccc(Cl)c(C#N)c2)n1C` [Example I-079], the pest or weed control at 4 ppm in the experiment with Myzus persicae [1] came to 100%. Besides, the pest or weed control at 100 g/ha in the experiment on Myzus persicae [2] is 90%; in the experiment on Phaedon cochleariae it was 83%.
For `CCS(=O)(=O)c1c(-c2nc3cc(C(F)(F)F)ncc3n2C)nc(-c2cc(Cl)c(C(F)(F)F)cc2C)n1C` [Example I-081], the pest or weed control at 4 ppm in the experiment on Myzus persicae [1] is 100%. For the same compound, the pest or weed control at 100 g/ha in the experiment with Phaedon cochleariae and in the experiment with Spodoptera frugiperda was 100% throughout.
Consider `CCS(=O)(=O)c1c(-n2cc3cnc(C(F)(F)F)cc3n2)nc(-c2ccc(Cl)cc2)n1C` [Example I-093], for which, in the experiment with Myzus persicae [1], the pest or weed control at 4 ppm stood at 100%. Further, the pest or weed control at 100 g/ha in the experiment on Phaedon cochleariae and in the experiment with Spodoptera frugiperda was 100% in each case.
Regarding `CCS(=O)(=O)c1c(-n2cc3ncc(C(F)(F)F)cc3n2)nc(-c2ccc(Cl)cc2)n1C` [Example I-094], in the experiment with Myzus persicae [1], the pest or weed control at 4 ppm was found to be 100%. Moreover, the figures for the pest or weed control at 100 g/ha in the experiment with Phaedon cochleariae and with Spodoptera frugiperda were 83% and 100%, respectively.
On to `CCS(=O)(=O)c1c(-n2cc3cnc(C(F)(F)F)cc3n2)nc(-c2ccccc2)n1C` [Example I-095], for which, in the experiment on Myzus persicae [1], the pest or weed control at 4 ppm was determined as 100%. Besides, the pest or weed control at 100 g/ha is 90% in the experiment on Myzus persicae [2] and 100% in the experiment on Spodoptera frugiperda.
Regarding `CCS(=O)(=O)c1c(-n2cc3ncc(C(F)(F)F)cc3n2)nc(-c2ccccc2)n1C` [Example I-096], the pest or weed control at 4 ppm with Myzus persicae [1] was found to be 90%. Also, the pest or weed control at 100 g/ha worked out at 90% with Myzus persicae [2], 100% with Phaedon cochleariae and 83% with Spodoptera frugiperda.
Take `CCS(=O)(=O)c1c(-n2cc3cnc(C(F)(F)F)cc3n2)nc(-c2ccc(C(F)(F)F)cc2)n1C` [Example I-097]: in the experiment with Myzus persicae [1], the pest or weed control at 4 ppm was 100%. For the same compound, the pest or weed control at 100 g/ha in the experiment with Phaedon cochleariae and in the experiment with Spodoptera frugiperda was 100% each time.
`CCS(=O)(=O)c1c(-n2cc3ncc(C(F)(F)F)cc3n2)nc(-c2ccc(C(F)(F)F)cc2)n1C` [Example I-098, 2-{5-(Ethylsulfonyl)-1-methyl-2-[4-(trifluoromethyl)phenyl]-1H-imidazol-4-yl}-6-(trifluoromethyl)-2H-pyrazolo[4,3-b]pyridine]: the pest or weed control at 4 ppm in the experiment on Myzus persicae [1] is 100%. Moreover, the pest or weed control at 100 g/ha in the experiment with Phaedon cochleariae and in the experiment on Spodoptera frugiperda was 100% in each case.

Source of the values: patent publication US11083199B2, “Heterocycle derivatives as pesticides” (Bayer Aktiengesellschaft, priority 2017, dated 2021).
